These results are taken from patent publication US20070149456A1, “Epithelial sodium channel inhibiting agents and uses therefor” (University of Pittsburgh, priority 2005, published 2007).

The assay deals with T1, wild-type ENaC (Mus musculus, UniProt Q61180+Q9WU38+Q9WU39, DEL206-231).
T1 construct: expressed in transfected cells; host or cells: Xenopus laevis oocytes (cRNA injection)
T1 sequence (Q61180 with tags, fused parts or gaps DEL206-231): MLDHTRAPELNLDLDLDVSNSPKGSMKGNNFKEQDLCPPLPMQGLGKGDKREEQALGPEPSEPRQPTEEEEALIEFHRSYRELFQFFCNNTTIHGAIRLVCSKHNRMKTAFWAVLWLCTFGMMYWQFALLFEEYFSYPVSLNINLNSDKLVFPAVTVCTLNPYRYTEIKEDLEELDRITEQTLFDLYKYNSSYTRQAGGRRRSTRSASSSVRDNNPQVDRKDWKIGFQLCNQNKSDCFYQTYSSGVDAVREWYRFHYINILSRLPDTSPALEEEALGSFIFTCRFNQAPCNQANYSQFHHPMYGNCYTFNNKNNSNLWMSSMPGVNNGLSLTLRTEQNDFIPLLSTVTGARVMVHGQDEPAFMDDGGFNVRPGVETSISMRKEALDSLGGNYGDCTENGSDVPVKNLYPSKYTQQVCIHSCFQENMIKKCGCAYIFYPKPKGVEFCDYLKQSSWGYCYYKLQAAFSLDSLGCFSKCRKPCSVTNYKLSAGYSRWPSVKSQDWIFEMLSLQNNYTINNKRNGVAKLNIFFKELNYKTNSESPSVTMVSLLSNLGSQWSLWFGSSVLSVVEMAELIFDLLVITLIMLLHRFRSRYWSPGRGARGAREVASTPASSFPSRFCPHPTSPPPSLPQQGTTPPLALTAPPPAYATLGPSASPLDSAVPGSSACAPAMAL
T1 sequence (Q9WU38 1-638): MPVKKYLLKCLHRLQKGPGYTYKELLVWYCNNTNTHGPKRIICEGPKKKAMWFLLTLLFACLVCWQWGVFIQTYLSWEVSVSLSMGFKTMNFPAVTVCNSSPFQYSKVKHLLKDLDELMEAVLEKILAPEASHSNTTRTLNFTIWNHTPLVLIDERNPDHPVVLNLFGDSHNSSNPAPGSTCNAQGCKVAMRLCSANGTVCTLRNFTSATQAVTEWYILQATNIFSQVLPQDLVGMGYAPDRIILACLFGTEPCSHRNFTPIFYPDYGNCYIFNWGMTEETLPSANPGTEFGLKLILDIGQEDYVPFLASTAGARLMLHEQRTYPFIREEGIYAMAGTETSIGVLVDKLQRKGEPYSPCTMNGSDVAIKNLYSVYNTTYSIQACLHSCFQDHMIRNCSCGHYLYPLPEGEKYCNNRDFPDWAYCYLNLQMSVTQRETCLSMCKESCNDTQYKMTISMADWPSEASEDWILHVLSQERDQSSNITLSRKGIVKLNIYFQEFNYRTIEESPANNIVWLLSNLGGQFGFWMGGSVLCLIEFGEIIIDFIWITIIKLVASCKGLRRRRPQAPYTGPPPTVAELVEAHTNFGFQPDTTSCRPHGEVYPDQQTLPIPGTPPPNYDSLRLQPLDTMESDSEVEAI
T1 sequence (Q9WU39 1-655): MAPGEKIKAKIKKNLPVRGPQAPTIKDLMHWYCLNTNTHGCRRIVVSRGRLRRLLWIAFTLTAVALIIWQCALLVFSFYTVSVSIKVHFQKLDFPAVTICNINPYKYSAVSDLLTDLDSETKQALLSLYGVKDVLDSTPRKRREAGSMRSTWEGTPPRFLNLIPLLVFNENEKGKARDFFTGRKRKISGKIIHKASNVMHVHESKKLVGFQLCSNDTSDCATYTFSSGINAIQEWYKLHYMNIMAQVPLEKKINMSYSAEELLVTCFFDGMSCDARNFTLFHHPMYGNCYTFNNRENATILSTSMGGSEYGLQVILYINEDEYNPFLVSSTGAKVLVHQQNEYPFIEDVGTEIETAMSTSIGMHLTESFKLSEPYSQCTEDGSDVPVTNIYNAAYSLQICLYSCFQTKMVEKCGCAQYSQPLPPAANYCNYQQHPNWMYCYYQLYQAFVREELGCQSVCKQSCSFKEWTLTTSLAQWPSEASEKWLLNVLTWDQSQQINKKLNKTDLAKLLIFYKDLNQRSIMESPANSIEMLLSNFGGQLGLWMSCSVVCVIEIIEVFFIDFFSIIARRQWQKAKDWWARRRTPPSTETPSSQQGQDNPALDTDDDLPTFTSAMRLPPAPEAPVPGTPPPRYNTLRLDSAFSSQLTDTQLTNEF
Put plainly: Single channel cell-attached patch clamp in oocytes expressing wild-type ENaC, pipette back filled with peptide. In kind it is cell-based. As for the experimental part:
Single Channel Studies—Bath and pipette solutions contained (in mM) 110 LiCl, 2 CaCl2, 2 KCl, and 10 Hepes, pH 7.4. Experiments were performed as previously described (Carattino, M. D., Sheng, S., and Kleyman, T. R. (2005), Mutations in the pore region modify epithelial sodium channel gating by shear stress, J Biol. Chem. 280, 4393-4401 33). Single channel currents were recorded in the cell-attached configuration of patch clamp, acquired at 5 kHz and filtered at 1 kHz by a 4-pole low pass Bessel filter. Single channel currents were further filtered at 100-200 Hz with a Gaussian filter for display and analysis. Recordings were performed at an applied pipette potential of +60 mV.
For experiments performed with α-26, the tip of the pipette was filled with standard patch solution. Pipette resistances were similar in control (7.8±0.4 MΩ) and α-26-treated patches (6.9±0.6 MΩ) (p=0.30, unpaired t test). […] Unitary currents, at an applied pipette potential of +60 mV, were similar in both control (0.42±0.2 pA, n=5) and α-26-containing patches (0.39±0.2 pA, n=7) (p=0.32, unpaired t test). […] At the beginning of the experiment open times were similar to that observed in controls (FIG. 4B). Over the course of the experiment openings decreased and were shorter in duration compared with control until channels were fully closed. […]

Entries after “also recorded” stand apart in the source; their conditions may differ.

As to “Ac-DLRGALPHPLQRLRTPPPPNPARSAR-NH2 [α-26]”, the unitary currents (applied pipette potential +60 mV, α-26 10 μM in pipette) stood at 0.39±0.2 pA. In addition, the “product of the number of channels and open probability (NPo) compared with controls” value (pipette backfilled with α-26 10 μM) is listed as “reduces ENaC open probability; also recorded: reduction”.
